Test results published in ChEMBL document CHEMBL3046532, “QSAR analysis on PfPK7 inhibitors using HQSAR, CoMFA, and CoMSIA” (Med Chem Res, 2012).

Target: T1, Putative uncharacterized protein pk7 (Plasmodium falciparum, UniProt O96214)
T1 sequence (O96214 whole entry): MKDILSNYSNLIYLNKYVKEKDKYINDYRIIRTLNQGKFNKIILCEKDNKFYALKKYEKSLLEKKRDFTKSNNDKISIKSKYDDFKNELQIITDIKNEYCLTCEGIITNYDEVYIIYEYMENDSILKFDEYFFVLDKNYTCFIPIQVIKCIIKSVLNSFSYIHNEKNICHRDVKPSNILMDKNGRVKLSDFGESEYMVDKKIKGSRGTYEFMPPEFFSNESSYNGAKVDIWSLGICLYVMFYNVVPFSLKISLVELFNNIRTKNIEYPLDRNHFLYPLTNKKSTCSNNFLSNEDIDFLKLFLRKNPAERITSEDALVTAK
Assay: Inhibition of Plasmodium falciparum protein kinase 7

| Compound | IC50 [µM] |
| --- | --- |
| CN(Cc1ccc(F)nc1)c1ccc2ncc(-c3ccc(CN4CCC(O)CC4)cc3)n2n1 | 103 |
| CN(Cc1ccc(F)nc1)c1ccc2ncc(-c3ccc(Cn4ccnc4)cc3)n2n1 | 56 |
| CN(Cc1ccc(F)nc1)c1ccc2ncc(-c3ccc(N)cc3)n2n1 | 42 |
| CN(Cc1ccc(F)nc1)c1ccc2ncc(-c3ccc(CNCO)cc3)n2n1 | 34 |
| CN(Cc1ccc(F)nc1)c1ccc2ncc(-c3ccc(C#N)cc3)n2n1 | 1.07 |
| CN(Cc1ccc(F)nc1)c1ccc2ncc(-c3ccc(CO)cc3)n2n1 | 21 |
| N#Cc1ccc(-c2cnc3ccc(N[C@H]4CCCNC4)nn23)cc1 | 2.1 |
| CN(Cc1ccc(F)nc1)c1ccc2ncc(-c3ccc(C(N)=O)cc3)n2n1 | 1.1 |
